Measured values: patent publication US20210269440A1 (BETTA PHARMACEUTICALS CO., LTD, priority 2018, published 2021)
pIC50: −log10 of the molar value.

target: T1, PD-1/PD-L1 protein/protein interaction (Homo sapiens, UniProt Q9NZQ7); experiment: PD-1/PD-L1 homogenous time-resolved fluorescence (HTRF) binding assay
T1 construct: Recombinant human PD-L1 protein (19-238) with a His-tag at the C-terminus; purchased AcroBiosystems PD1-H5229 (PD-L1); PD1-H5257 (PD-1)
Description: Resolved Fluorescence (HTRF) Binding Assay
The assays were conducted in a standard black 384-well polystyrene plate with a final volume of […]. Inhibitors were first serially diluted in DMSO and then added to the plate wells before the addition of other reaction components. The final concentration of DMSO in the assay was 1%. The assays were carried out at 25° C. in the PBS buffer (pH 7.4) with 0.05% Tween-20 and 0.1% BSA. […] Plates were centrifuged and proteins were preincubated with inhibitors for 40 min. The incubation was followed by the addition of 10 μL of HTRF detection buffer supplemented with Europium cryptate-labeled anti-human IgG (PerkinElmer-AD0212) specific for Fc and anti-His antibody conjugated to SureLight®—Allophycocyanin (APC, PerkinElmer-AD0059H). After centrifugation, the plate was incubated at 25° C. for 60 min. […] Final concentrations in the assay were […] PD1, 10 nM PD-L1, 1 nM europium anti-human IgG and 20 nM anti-His-Allophycocyanin. IC50 determination was performed by fitting the curve of percent control activity versus the log of the inhibitor concentration using the GraphPad Prism 5.0 software.

T1 sequence (Q9NZQ7 19-238): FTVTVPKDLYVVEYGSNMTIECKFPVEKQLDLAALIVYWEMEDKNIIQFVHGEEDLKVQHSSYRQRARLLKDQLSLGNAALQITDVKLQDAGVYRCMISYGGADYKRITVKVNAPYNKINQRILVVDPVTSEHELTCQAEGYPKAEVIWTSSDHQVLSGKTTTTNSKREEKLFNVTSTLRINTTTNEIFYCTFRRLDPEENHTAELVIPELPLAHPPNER

| Compound | pIC50 |
| --- | --- |
| Cc1c(Nc2nccc3cc(CN4CCCCC4C(=O)O)cnc23)cccc1-c1cccc(OCC2(CN3CCOCC3)CC2)c1C (stereo not shown) [Compound 54, 1-((8-((2,2′-dimethyl-3′-((1-(morpholinomethyl)cyclopropyl)methoxy)-[1,1′-biphenyl]-3-yl)amino)-1,7-naphthyridin-3-yl)methyl)piperidine-2-carboxylic acid] | 8.00 to 8.70 |
| Cc1c(Nc2nccc3cc(CN4CCCCC4C(=O)O)cnc23)cccc1-c1cccc(OC(C)CCN2CCOCC2)c1C (stereo not shown) [Compound 55, 1-((8-((2,2′-dimethyl-3′-((4-morpholinobutan-2-yl)oxy)-[1,1′-biphenyl]-3-yl)amino)-1,7-naphthyridin-3-yl)methyl)piperidine-2-carboxylic acid] | 8.00 to 8.70 |
| Cc1c(Nc2nccc3cc(CN4CCCCC4C(=O)O)cnc23)cccc1-c1cccc2c1CCC2OCCN1CCOCC1 (stereo not shown) [Compound 56, 1-((8-((2-methyl-3-(1-(2-morpholinoethoxy)-2,3-dihydro-1H-inden-4-yl)phenyl)amino)-1,7-naphthyridin-3-yl)methyl)piperidine-2-carboxylic acid] | < 6.82 |
| Cc1c(/C=C/CCN2CCOCC2)cccc1-c1cccc(Nc2nccc3cc(CN4CCCCC4C(=O)O)cnc23)c1C (stereo not shown) [Compound 57, (E)-1-((8-((2,2′-dimethyl-3′-(4-morpholinobut-1-en-1-yl)-[1,1′-biphenyl]-3-yl)amino)-1,7-naphthyridin-3-yl)methyl)piperidine-2-carboxylic acid] | 8.00 to 8.70 |

More lines, now with the values ahead:

| pIC50 | Compound |
| --- | --- |
| 8.00 to 8.70 | Cc1c(CCCCN2CCOCC2)cccc1-c1cccc(Nc2nccc3cc(CN4CCCCC4C(=O)O)cnc23)c1C (stereo not shown) [Compound 58, 1-((8-((2,2′-dimethyl-3′-(4-morpholinobutyl)-[1,1′-biphenyl]-3-yl)amino)-1,7-naphthyridin-3-yl)methyl)piperidine-2-carboxylic acid] |
| 8.00 to 8.70 | COc1ccc(-c2cccc(Nc3nccc4cc(CN5CCCCC5C(=O)O)cnc34)c2C)cc1OCCCN1CCOCC1 (stereo not shown) [Compound 59, 1-((8-((4′-methoxy-2-methyl-3′-(3-morpholinopropoxy)-[1,1′-biphenyl]-3-yl)amino)-1,7-naphthyridin-3-yl)methyl)piperidine-2-carboxylic acid] |
| < 6.82 | Cc1c(Nc2nccc3cc(CN4CCCCC4C(=O)O)cnc23)cccc1-c1ccc(C(F)(F)F)c(OCCCN2CCOCC2)c1 (stereo not shown) [Compound 60, 1-((8-((2-methyl-3′-(3-morpholinopropoxy)-4′-(trifluoromethyl)-[1,1′-biphenyl]-3-yl)amino)-1,7-naphthyridin-3-yl)methyl)piperidine-2-carboxylic acid] |
